Assay results reported in patent publication US12083227B2, “Solid pharmaceutical formulations for treating endometriosis, uterine fibroids, polycystic ovary syndrome or adenomyosis” (priority 2017, dated 2024).

What was measured:
[1] = acid dissociation constants by potentiometric titration; type: physicochemical
Experimental: The acid dissociation constants were determined by potentiometric titration method. […] The first is XH2+, where the carboxylic acid is not ionized but the secondary amine is; the molecule has an overall +1 charge, and the main species at pHs below 4.0. The second is XH, where both the carboxylic acid and the tertiary amine are ionized. […] The third is X−, where the carboxylic acid is ionized but the tertiary amine is not.

tumors in rat = assay: 2-year carcinogenicity study in rats; type: in vivo
Excerpt: The rat tumors were identified as being species-specific and of negligible relevance to humans. This conclusion is based on a follow-on thyroid and hepatic effects-related investigative study performed to document the possibility that thyroid and liver tumors may be specific to rat and occurred via induction of hepatic drug metabolizing enzymes at the high dose.

[2] = system: reproductive organs of monkeys; assay: repeat-dose study in monkeys; type: in vivo, monkey; settings: repeat-dose, 75, 150, 300 and 600 mg/kg/day, all doses
Excerpt: (§1) Based on pharmacologic actions of elagolix in humans a reversible effect on fertility may be expected in women.

[3] = drug interaction studies: elagolix in the presence of co-administered drug; type: in vivo, human; settings: for AUC Ratio (co-administration vs. elagolix alone) / Cmax Ratio (co-administration vs. elagolix alone): elagolix 150 mg single dose
Experimental: Drug interaction studies were performed with elagolix and other drugs that are likely to be co-administered and with drugs commonly used as probes for pharmacokinetic interactions.

tumors in mouse = assay: 2-year carcinogenicity study in mice; type: in vivo; settings: any dose
[4] = pharmacokinetic properties of elagolix in healthy subjects; type: in vivo, human; settings: minor pathways include CYP2D6, CYP2C8 and UGTs
[5] = pharmacokinetics in specific populations (renal and hepatic impairment); type: in vivo, human
Excerpt: The mean exposures are similar for women with moderate to severe or end stage renal disease (including women on dialysis) compared to women with normal renal function.
Elagolix exposures (Cmax and AUC) are similar between women with normal hepatic function and women with mild hepatic impairment. Elagolix exposures in women with moderate and severe hepatic impairment are approximately 3-fold and 7-fold, respectively, of exposures from women with normal hepatic function.

[6] = system: fertility and reproductive organs of rats; assay: fertility study and repeat-dose study in rats; type: in vivo, rat
Excerpt: as §1

women with endometriosis = assay: Phase 3 studies EM-I and EM-II with extension studies EM-III and EM-IV (pooled efficacy, pharmacodynamics, safety); type: in vivo, human; settings: for Depressed Mood, depression, depressive symptoms and or tearfulness: Placebo 17 (2.3); for Mood altered, mood swings: Placebo 25 (3.4); for Completed Suicide: EM-1 and EM-2; for patients with a Z-score below the normal lower bound of −2.0: following 12 months of treatment
Excerpt: Each placebo-controlled study assessed the reduction in endometriosis-associated pain over 6 months of treatment. More than 75 percent of women who completed Study EM-I and EM-II enrolled in the extension studies for an additional 6 month treatment period. Subjects were followed for up to 12 months post-treatment. Women in these studies also provided a daily self-assessment of their endometriosis pain using the Numeric Rating Scale (NRS), on a scale ranging from 0 (no pain) to 10 (worst pain ever). […] The effects of elagolix on menstrual bleeding were evaluated for up to 12 months using an electronic daily diary where subjects classified their flow of menstrual bleeding (if present in the last 24 hours) as spotting, light, medium, or heavy. […] The population age range was 18-49 years old. Women who completed six months of treatment and met eligibility criteria continued treatment in two blinded six-month extension studies, for a total treatment duration of up to 12 months. In the placebo-controlled and extension clinical studies, BMD was measured by DXA. Changes observed in BMD at other anatomical sites (femoral neck, total hip) were generally smaller than lumbar spine.

[7] = system: fatigue in women with moderate to severe endometriosis-related pain; assay: Phase III study of fatigue (PROMIS Fatigue SF-6a) in endometriosis pain; type: in vivo, human
Experimental: A Phase III study was conducted to assess the effects of elagolix for clinically meaningful reductions in pain and other symptoms. Data provided examined the impact of elagolix on fatigue in women with moderate to severe endometriosis-related pain. […] Fatigue was assessed using the Patient Reported Outcome Measurement Information System (PROMIS®), Fatigue Short Form (SF) 6a. Six items assessed a range of self-reported symptoms from mild, subjective feelings of tiredness to overwhelming, sustained sense of exhaustion that likely decreases one's ability to execute daily activities and function normally. The domain was divided into the experience of fatigue (frequency, duration and intensity) and impact of fatigue on physical, mental and social activities. All items assessed fatigue over the previous seven days. Responses to each question was filed on a 5-item Likert scale: 1—“Not at all”; 2—“A little bit”; 3—“Somewhat”; 4—“Quite a bit”; and 5—“Very much.” The questionnaire was administered at baseline and months 1, 3, and 6. Lower scores indicated less fatigue. Post-hoc, Fatigue SF-6a raw scores were converted to T-scores. The T-score rescales […] the raw score into a standardized score such that the general population has a mean of 50 and a standard deviation (SD) of 10. Analysis: […] ANCOVA controlled for treatment as main effect. Baseline Fatigue SF-6a T-score included as a covariate.

[8] = system: ovulation and endometrial thickness in healthy women; assay: 3-menstrual cycle study in healthy women; type: in vivo, human; settings: transvaginal ultrasound, 150 mg QD and 200 mg BID
[9] = Ketoconazole 400 mg once daily, N 11
[10] = Rifampin 600 mg single dose, N 12

With `COc1cccc(-c2c(C)n(Cc3c(F)cccc3C(F)(F)F)c(=O)n(C[C@H](NCCCC(=O)O)c3ccccc3)c2=O)c1F` [elagolix, 4-((R)-2-[5-(2-fluoro-3-methoxy-phenyl)-3-(2-fluoro-6-trifluoromethyl-benzyl)-4-methyl-2,6-dioxo-3,6-dihydro-2H-pyrimidin-1-yl]-1-phenyl-ethylamino)-butyric acid] the “pKa (B)” value ([1]; amine) was 7.9, the “pKa (A)” value ([1]; carboxylic acid) was 4.0 and the “carcinogenicity: tumors” value (tumors in rat; 2-year, high dose, considered species-specific) was “increase in thyroid (male and female) and liver (males only) tumors”. The “margin of safety at the high dose” value (tumors in rat; both, in vivo, 2 years) was 13 fold, the “reproductive organ findings (cervix, uterus and vagina)” value [2] was “reversible atrophy of reproductive organs” and the “AUC Ratio (co-administration vs. elagolix alone)” value (from here on “AUC Ratio”) [3, 9] was 2.20. The “Cmax Ratio (co-administration vs. elagolix alone)” value (“Cmax Ratio” below) [3, 9] was 1.77, the “AUC Ratio” value ([3]; Rifampin 600 mg once daily) was 1.65 and the “Cmax Ratio” value ([3]; Rifampin 600 mg once daily) was 2.00. For the same molecule, the “AUC Ratio” value [3, 10] was 5.58, the “Cmax Ratio” value [3, 10] was 4.37 and the “direction of the change in AUC of elagolix” value ([3]; co-administered with rifampin) was “↑ elagolix”. The “carcinogenicity: tumors” value (tumors in mouse) was “no increase in tumors”, the Metabolism [4] was “CYP3A (major) Minor” and the “exposures in moderate hepatic impairment relative to normal hepatic function” value ([5]; moderate hepatic impairment) was “approximately 3 fold”. For the same molecule, the “exposures (Cmax and AUC) in renal impairment” value ([5]; moderate to severe or end stage renal disease vs normal renal function) was “not altered”, the “exposures in severe hepatic impairment relative to normal hepatic function” value [5] was “approximately 7 fold” and the “exposures in severe hepatic impairment relative to normal hepatic function” value ([5]; listed as Elagolix) was about 7 fold. The “exposures (Cmax and AUC) in mild hepatic impairment” value ([5]; vs women with normal hepatic function) was “similar”, the effect on fertility ([6]; fertility study, 50, 150, 300 mg/kg/day) was “no effect” and the ovary findings ([6]; repeat-dose study, 600, 800 mg/kg/day) was “involution and a decrease in corpora lutea in ovaries”. For the same molecule, the Suicidal ideation (women with endometriosis; 150 mg Once Daily (N = 475)) was 1 (0.2) N (%), the “Depressed Mood, depression, depressive symptoms and or tearfulness” value (women with endometriosis; 150 mg Once Daily (N = 475)) was 13 (2.7) N (%) and the “Mood altered, mood swings” value (women with endometriosis; 150 mg Once Daily (N = 475)) was 25 (5.7) N (%). For the same molecule, the “Numeric Rating Scale (NRS) scores of endometriosis pain” value (women with endometriosis; 150 mg QD and 200 mg BID vs placebo at Month 3 and Month 6, p<0.001) was “significant reduction”, the “percentage of days per month of the opioid or naproxen rescue medication use” value (women with endometriosis; 200 mg BID compared to placebo) was “significant reduction” and the Suicidal ideation (women with endometriosis; 200 mg Twice Daily (N = 477)) was 1 (0.2) N (%). The “Depressed Mood, depression, depressive symptoms and or tearfulness” value (women with endometriosis; 200 mg Twice Daily (N = 477)) was 29 (6.1) N (%), the “Mood altered, mood swings” value (women with endometriosis; 200 mg Twice Daily (N = 477)) was 25 (5.2) N (%) and the “Completed Suicide” value (women with endometriosis; 150 mg Once Daily (N = 475)) was 1 (0.2) N (%). For the same molecule, the “Completed Suicide” value (women with endometriosis; 200 mg Twice Daily (N = 477)) was 0 N (%), the “resumption of menses after stopping, % of women” value (“resumption … % of women” below) (women with endometriosis; after 6 months of 150 mg once daily, within 1 month) was 59% and the “resumption … % of women” value (women with endometriosis; after 6 months of 150 mg once daily, within 2 months) was 87%. The “resumption … % of women” value (women with endometriosis; after 6 months of 150 mg once daily, within 6 months) was 95%, the “resumption … % of women” value (women with endometriosis; after 6 months of 200 mg twice daily, within 1 month) was 60% and the “resumption … % of women” value (women with endometriosis; after 6 months of 200 mg twice daily, within 2 months) was 88%. For the same molecule, the “resumption … % of women” value (women with endometriosis; after 6 months of 200 mg twice daily, within 6 months) was 97%, the “resumption … % of women” value (women with endometriosis; after 12 months of 150 mg once daily, within 1 month) was 77% and the “resumption … % of women” value (women with endometriosis; after 12 months of 150 mg once daily, within 2 months) was 95%. The “resumption … % of women” value (women with endometriosis; after 12 months of 150 mg once daily, within 6 months) was 98%, the “resumption … % of women” value (women with endometriosis; after 12 months of 200 mg twice daily, within 1 month) was 55% and the “resumption … % of women” value (women with endometriosis; after 12 months of 200 mg twice daily, within 2 months) was 91%. The “resumption … % of women” value (women with endometriosis; after 12 months of 200 mg twice daily, within 6 months) was 96%, the “recovery of BMD at lumbar spine, total hip and femoral neck” value (women with endometriosis; both treatment groups, post-treatment months 6 and 12) was “progressive recovery of BMD” and the “patients with a Z-score below the normal lower bound of −2.0” value (women with endometriosis; 150 mg daily dose) was “no patient”. The “patients with a Z-score below the normal lower bound of −2.0” value (women with endometriosis; 200 mg BID) was “less than 1%”, the “percentage of days in which rescue opioid medication was taken” value (women with endometriosis; pooled analysis of two phase 3 trials, 150 QD and 200 BID vs placebo) was “significant reduction” and the “mean percent daily pill counts (rescue opioid)” value (women with endometriosis; pooled analysis, 200 mg BID vs placebo) was “significant reduction”. The “reduction in fatigue (PROMIS Fatigue SF-6a T-Score)” value ([7]; 200 mg, as early as Month 1) was “statistically significant reduction”, the “PROMIS Fatigue SF-6a T-Score relative to placebo” value ([7]; both doses (150 mg QD, 200 mg BID) at Months 3 and 6) was “Statistically significant reductions” and the “mean endometrial thickness compared to the pretreatment values” [8] was “dose dependent decrease”.
